The target of assay [1] is Human immunodeficiency virus type 1 reverse transcriptase (Human immunodeficiency virus 1, UniProt Q72547). Kind of assay: Inhibition of HIV1 reverse transcriptase.
Assay [2] can be described thus: Inhibition of HIV2 reverse transcriptase. Also on record: species or system Human immunodeficiency virus 2.

One may read the IC50 as the concentration at which inhibition is half-maximal. Low values mean inhibition by little substance, high ones a need for much substance.

For the molecule `CC1(C)CC[C@]2(C(=O)O)CC=C3[C@]4(C)CC[C@H]5C(C)(C)[C@@H](OC(=O)c6ccc(O)cc6)C[C@@H](O)[C@]5(C)[C@H]4CC[C@@]3(C)[C@@H]2C1`, the results for the IC50 in assay [1] and in assay [2] were 3.7 µM and 59 µM, respectively.

For the molecule `CC1(C)CC[C@]2(C(=O)O)CC=C3[C@]4(C)CC[C@H]5C(C)(C)[C@@H](O)[C@H](O)C[C@]5(C)[C@H]4CC[C@@]3(C)[C@@H]2C1`, the IC50 was found to be 3.4 µM in assay [1] and 56.7 µM in assay [2].

In turn, `CC[C@H]1CN2CCc3cc(OC)c(OC)cc3[C@@H]2C[C@@H]1CC1=NCCc2cc(OC)c(OC)cc21` showed an IC50 in assay [1] of 14 µM. For `CC1(C)CC[C@]2(C(=O)O)CC=C3[C@]4(C)CC[C@H]5C(C)(C)[C@@H](OC(=O)c6ccc(O)cc6)[C@H](OC(=O)c6ccc(O)cc6)C[C@]5(C)[C@H]4CC[C@@]3(C)[C@@H]2C1`, the IC50 in assay [1] came to 3.7 µM; in assay [2], 28.9 µM. `CC1(C)CC[C@]2(C(=O)O)CC=C3[C@]4(C)CC[C@H]5C(C)(C)[C@@H](O)C[C@@H](O)[C@]5(C)[C@H]4CC[C@@]3(C)[C@@H]2C1`: the figures for the IC50 in assay [1] and in assay [2] were 4.9 µM and 53.1 µM, respectively.

Turning to `CC(=O)O[C@H]1CC[C@]2(C)[C@H]3CC[C@]4(C)C(=CC[C@@]5(C(=O)O)CCC(C)(C)C[C@H]54)[C@]3(C)CC[C@H]2C1(C)C` [ACETYL ALEURITOLIC ACID], the IC50 in assay [1] was 136 µM; in assay [2], above 200 µM. Consider `CC1(C)CC[C@]2(C(=O)O)CC=C3[C@]4(C)CC[C@H]5C(C)(C)[C@@H](O)CC[C@]5(C)[C@H]4CC[C@@]3(C)[C@@H]2C1` [ALEURITOLIC ACID], for which the values for the IC50 in assay [1] and in assay [2] were 24.9 µM and 78.7 µM, respectively. In assay [1], `COc1cc2c(ccc3c4cc(OC)c(OC)cc4c[n+](C)c23)cc1O` [FAGARONINE] displayed an IC50 of 13 µM.

For the origin of these results see ChEMBL document CHEMBL1149052, “Pentacyclic triterpenes derived from Maprounea africana are potent inhibitors of HIV-1 reverse transcriptase” (J Nat Prod, 1994).
